Source: the NIST ThermoML archive (doi:10.1021/je7002786)

Legend:
[1] = molar heat capacity at constant pressure; settings: 101.33 kPa, Liquid
[2] = DTA

CCOS(=O)(=O)[O-].CCn1cc[n+](C)c1 [1-ethyl-3-methylimidazolium ethyl sulfate]
[1], Small sample (50 mg) DSC
Settings	molar heat capacity at constant pressure [J/K/mol]
283.1 K	387.04
293.15 K	409.73
303.15 K	432.41
313.15 K	455.09
323.15 K	477.78
333.15 K	500.46
343.15 K	523.15
353.15 K	545.83
363.15 K	568.51
373.1 K	591.2

Settings	Glass transition temperature [°C]
[2]	-78.40

CCCCn1cc[n+](C)c1.COS(=O)(=O)[O-] [1-butyl-3-methylimidazolium methyl sulfate]
Settings	Normal melting temperature [°C]	molar heat capacity at constant pressure [J/K/mol]
[1], 283.1 K	–	226.29
[1], 293.15 K	–	246.56
[1], 303.15 K	–	266.84
[1], 313.15 K	–	287.11
[1], 323.15 K	–	307.39
[1], 333.15 K	–	327.66
[1], 343.15 K	–	347.94
[1], 353.15 K	–	368.22
[1], 363.15 K	–	388.49
[1], 373.1 K	–	408.77
[2], Crystal	-4.10	–

Settings	Glass transition temperature [°C]
[2]	-91.90
